In patent publication US20260294865A1, “AUTOPHAGY ACTIVATOR AND AUTOPHAGY ACTIVATION COMPOSITION” (MARUZEN PHARMACEUTICALS CO., LTD., priority 2023, published 2026):

Test system: HeLa cells stably expressing tfLC3
Assay: tfLC3 test (autophagy activity, GFP/RFP ratio)
Type: cell-based
Conditions: for Ratio with respect to DMSO (GFP/RFP value, negative control taken as 1): final concentration 10 μM, 24 hours, HeLa cells stably expressing tfLC3, negative control 0.1% DMSO = 1, lower value = autophagy activation; for autophagy activation effect (in words): tfLC3 test, GFP/RFP ratio lower than negative control
Source text: An autophagy activation effect was examined by a tfLC3 test using the compound represented by the structural formula (1) (manufactured by INDOFINE Chemical Company) and the compound represented by the structural formula (2) (manufactured by INDOFINE Chemical Company) as test samples.
The tfLC3 test is a test performed by using tfLC3, in which LC3 that is an autophagosome marker protein is tandemly tagged with fluorescent proteins mRFP (RFP: Red Fluorescent Protein) and EGFP (GFP: Green Fluorescent Protein) (Autophagy 2007; 3:452-460. (PubMed: 17534139) DOI: 10.4161/auto. 4451).
In a cell undergoing autophagy, LC3 dots increase. However, LC3 is accumulated in a cell even if degradation due to autophagy is inhibited. Therefore, an increase of the LC3 dots alone cannot be used to conclude that autophagy is enhanced. Therefore, enhancement and inhibition of autophagy can be distinguished by examining the maturation process of autophagosomes (process of fusion of autophagosomes with lysosomes, or degradation in autolysosomes after fusion).
A fluorescent signal (green) of GFP of the tfLC3 is attenuated in the environment within the lysosomes, but RFP (red) is stable in the same environment. By using this characteristic of tfLC3 that fluorescence becomes red due to quenching of GFP in the process of maturing autophagosomes into autolysosomes, a GFP/RFP ratio within a cell is analyzed in the tfLC3 test to determine whether or not a test sample added to a medium has an autophagy activation capability.
HeLa cells stably expressing tfLC3 were seeded in a 96-well plate (Perkin Elmer #6055302 Cell Carrier 96 Ultra Black 96 well, Clear Bottom, with Lid), and the HeLA cells were cultured in a growth medium [Growth medium (DMEM (Sigma D6546) supplemented with 10% FBS and 4 mM L-glutamine] in a 5% CO2 incubator for 24 hours. Then, the medium was replaced with a medium to which a test sample was added (see Table 1 for the final concentration of the test sample), followed by culturing for 24 hours.
As a negative control, cells cultured in a medium including 0.1% dimethyl sulfoxide (DMSO) were used.
The GFP/RFP value (may be referred to as a “ratio with respect to DMSO” hereinafter) measured in the cells cultured in the test sample-added medium was calculated by determining the GFP/RFP value measured in the negative control as 1.
A test sample that has a lower value for the GFP/RFP ratio than the value for the GFP/RFP ratio of the negative control can be determined as having an autophagy activation effect.

For `COc1cc(OC)c2c(=O)cc(-c3ccc(OC)c(OC)c3)oc2c1` [2-(3,4-dimethoxyphenyl)-5,7-dimethoxy-4H-chromen-4-one], the “Ratio with respect to DMSO (GFP/RFP value, negative control taken as 1)” value was 0.847 and the “autophagy activation effect (in words)” value was “had the autophagy activation effect”.

For `COc1ccc2c(=O)c(OC)c(-c3cc(OC)c(OC)c(OC)c3)oc2c1` [3,7-dimethoxy-2-(3,4,5-trimethoxyphenyl)-4H-chromen-4-one], the “Ratio with respect to DMSO (GFP/RFP value, negative control taken as 1)” value was 0.848 and the “autophagy activation effect (in words)” value was “had the autophagy activation effect”.
